Data on 13 molecules can be found in patent publication USRE29226E, “Preparation of carboxylate and sulfonate salts of 1-cis-(3-chloro-2-propenyl)-3,5,7-triaza-1-azoniatricyclo(3.3.1.1^3, 7)decane-II” (The Dow Chemical Company, priority 1976, dated 1977).

Holding throughout (assay type): cell-based
One test relates to A. niger. Put plainly: conventional agar dilution test, A. niger. Particulars: An = A. niger, complete growth inhibition; for MIC: Aspergillus niger, read-out: Minimum Inhibitory Concentration. The source says: (§1) In representative operations, the products of the invention when tested for antimicrobial activity using conventional agar dilution tests gave complete growth inhibition against the following organisms at the indicated concentrations in parts per million:
(§2) Minimum Inhibitory Concentration, ppm

In a further test the test system is S. aureus. Put plainly: conventional agar dilution test, S. aureus. Particulars: Sa = S. aureus, complete growth inhibition.
From the text: as §1, §2

For the next test, the system named is P. chrysogenum. The experiment in a line: conventional agar dilution test, P. chrysogenum. Particulars: Pen = P. chrysogenum.
From the text: as §1, §2

For a further test, the system named is A. aerogenes. Put plainly: conventional agar dilution test, A. aerogenes. The settings on record: Aa = A. aerogenes, complete growth inhibition.
From the text: as §1, §2

In the next test the test system is C. pelliculosa. The experiment in a line: conventional agar dilution test, C. pelliculosa. The settings on record: Cp = C. pelliculosa.
From the text: as §1, §2

For a further test, the system named is S. cerevisiae. The experiment in a line: conventional agar dilution test, S. cerevisiae. The settings on record: Sc = S. cerevisiae; for MIC / Minimum Inhibitory Concentration: complete growth inhibition, agar dilution; for MIC: read-out: Minimum Inhibitory Concentration.
From the text: as §1, §2

A further test concerns S. typhosa. Put plainly: conventional agar dilution test, S. typhosa. Particulars: St = S. typhosa, complete growth inhibition.
From the text: as §1, §2

A further test concerns P. aeruginosa. The experiment in a line: conventional agar dilution test, P. aeruginosa. Particulars: Pa = P. aeruginosa, complete growth inhibition; for MIC: Pseudomonas aeruginosa, read-out: Minimum Inhibitory Concentration.
From the text: as §1, §2

[1] abbreviates: complete growth inhibition, agar dilution.

The structures appear in SMILES notation. Structures can show the parent of a compound that is named as a salt. Where two headings read alike, the source gives them in different places.

As to `Cl/C=C\C[N+]12CN3CN(CN(C3)C1)C2.[Cl-]` [Cis, cis-1-(3-chloro-2-propenyl)-3,5,7-triaza-1-azoniatricyclo(3.3.1.1^3,7)decane chloride, reference compound], the MIC in the test on A. niger is greater than 500 µg/mL; in the test on S. aureus (Staphylococcus aureus, read-out: Minimum Inhibitory Concentration), 50 µg/mL; with P. chrysogenum (Penicillium chrysogenum, complete growth inhibition, agar dilution, read-out: Minimum Inhibitory Concentration) it was 250 µg/mL; with A. aerogenes (Klebsiella aerogenes, read-out: Minimum Inhibitory Concentration), 50 µg/mL; with S. cerevisiae (Saccharomyces cerevisiae) it was 250 µg/mL; in the test with S. typhosa (read-out: Minimum Inhibitory Concentration), 25 µg/mL. For the same molecule, the MIC in the test on P. aeruginosa amounted to 100 µg/mL. Also, the “inhibition at 500 ppm” value in the test with C. pelliculosa is “± (50% inhibition at 500 ppm)”.

`Cl/C=C\C[N+]12CN3CN(CN(C3)C1)C2` [Example 1, Mono-benzoate Salt of Cis]: the MIC in the test with A. niger is greater than 500 µg/mL; with C. pelliculosa (Hansenula anomala, complete growth inhibition, agar dilution, read-out: Minimum Inhibitory Concentration), greater than 500 µg/mL; in the test with S. cerevisiae (Saccharomyces cerevisiae) it was greater than 500 µg/mL; in the test on P. aeruginosa, 250 µg/mL. Moreover, the “Minimum Inhibitory Concentration” value with S. aureus is recorded as 100 ppm; with P. chrysogenum (setting [1]), 500 ppm; with A. aerogenes, 100 ppm; with S. typhosa, 50 ppm.

For the molecule `Cl/C=C\C[N+]12CN3CN(CN(C3)C1)C2` [Example 2, p-Toluene Sulfonate Mono-Salt of Cis], the “Minimum Inhibitory Concentration” value with A. niger is given as greater than 500 ppm; in the test with S. aureus, 250 ppm; with P. chrysogenum (setting [1]), 500 ppm; in the test with A. aerogenes, 100 ppm; in the test on S. typhosa, 50 ppm; in the test on P. aeruginosa it was 250 ppm. The “inhibition at 500 ppm” value with C. pelliculosa is “± (50% inhibition at 500 ppm)”; in the test on S. cerevisiae (Saccharomyces cerevisiae, read-out: inhibition at 500 ppm), 50%.

For `Cl/C=C\C[N+]12CN3CN(CN(C3)C1)C2` [Ia], the “Minimum Inhibitory Concentration” value is greater than 500 ppm in the test with A. niger; 100 ppm in the test with S. aureus; greater than 500 ppm with P. chrysogenum (setting [1]); 100 ppm in the test with A. aerogenes; 50 ppm with S. typhosa; 250 ppm in the test on P. aeruginosa. In addition, the “inhibition at 500 ppm” value in the test with C. pelliculosa and in the test with S. cerevisiae was “± (50% inhibition at 500 ppm)” throughout.

Turning to `Cl/C=C\C[N+]12CN3CN(CN(C3)C1)C2` [Ib], the “Minimum Inhibitory Concentration” value in the test on A. niger is greater than 500 ppm; in the test on S. aureus, 75 ppm; in the test with P. chrysogenum (setting [1]) it was 500 ppm; in the test with A. aerogenes, 75 ppm; in the test with S. typhosa it was 50 ppm; with P. aeruginosa, 250 ppm. Further, the “inhibition at 500 ppm” value in the test on C. pelliculosa is listed as “.-+. (>90% inhibition at 500 ppm)”; in the test on S. cerevisiae, “± (50% inhibition at 500 ppm)”.

Consider `Cl/C=C\C[N+]12CN3CN(CN(C3)C1)C2` [Ic], for which the “Minimum Inhibitory Concentration” value with A. niger is recorded as greater than 500 ppm; in the test with S. aureus it was 100 ppm; in the test on P. chrysogenum (setting [1]), 500 ppm; in the test with A. aerogenes, 100 ppm; in the test on S. cerevisiae, 500 ppm; with S. typhosa it was 100 ppm. In addition, in the test on P. aeruginosa, the “Minimum Inhibitory Concentration” value is 250 ppm. For the same molecule, the “inhibition at 500 ppm” value with C. pelliculosa is “± (50% inhibition at 500 ppm)”.

For `Cl/C=C\C[N+]12CN3CN(CN(C3)C1)C2` [Id], the “Minimum Inhibitory Concentration” value is reported as greater than 500 ppm with A. niger; 250 ppm in the test on S. aureus; 500 ppm in the test with P. chrysogenum (setting [1]); 250 ppm in the test on A. aerogenes; 500 ppm with S. cerevisiae; 50 ppm in the test on S. typhosa. Moreover, in the test with P. aeruginosa, the “Minimum Inhibitory Concentration” value came out at 250 ppm. In the test on C. pelliculosa, the “inhibition at 500 ppm” value is given as “.-+. (>90% inhibition at 500 ppm)”.

Regarding `Cl/C=C\C[N+]12CN3CN(CN(C3)C1)C2` [Ie], the “Minimum Inhibitory Concentration” value is reported as greater than 500 ppm in the test with A. niger; 75 ppm in the test on S. aureus; greater than 500 ppm with P. chrysogenum (setting [1]); 250 ppm in the test with A. aerogenes; greater than 500 ppm in the test on C. pelliculosa (setting [1]); greater than 500 ppm with S. cerevisiae. Besides, the “Minimum Inhibitory Concentration” value with S. typhosa amounted to 25 ppm; with P. aeruginosa, 250 ppm.

With `Cl/C=C\C[N+]12CN3CN(CN(C3)C1)C2` [If], the “Minimum Inhibitory Concentration” value with A. niger came out at 250 ppm; in the test on S. aureus it was 250 ppm; with P. chrysogenum (setting [1]), 100 ppm; in the test on A. aerogenes it was 250 ppm; with C. pelliculosa (setting [1]), 250 ppm; in the test on S. cerevisiae it was 500 ppm. Further, the figures for the “Minimum Inhibitory Concentration” value in the test on S. typhosa and in the test with P. aeruginosa were 75 ppm and 250 ppm, respectively.

For `Cl/C=C\C[N+]12CN3CN(CN(C3)C1)C2` [Ig], the “Minimum Inhibitory Concentration” value with A. niger is on record as greater than 500 ppm; in the test with S. aureus, 50 ppm; in the test on A. aerogenes it was 250 ppm; in the test with C. pelliculosa (setting [1]), greater than 500 ppm; in the test with S. cerevisiae it was greater than 500 ppm; with S. typhosa, 50 ppm. For the same molecule, the “Minimum Inhibitory Concentration” value in the test on P. aeruginosa was determined as 250 ppm. The inhibition at 500 ppm with P. chrysogenum (Penicillium chrysogenum, 500 ppm) is greater than 90%.

`Cl/C=C\C[N+]12CN3CN(CN(C3)C1)C2` [Ih]: the “Minimum Inhibitory Concentration” value in the test on A. niger was greater than 500 ppm; with S. aureus, 250 ppm; with P. chrysogenum (setting [1]), greater than 500 ppm; in the test on A. aerogenes it was 250 ppm; in the test on C. pelliculosa (setting [1]), greater than 500 ppm; with S. cerevisiae it was greater than 500 ppm. In addition, the figures for the “Minimum Inhibitory Concentration” value with S. typhosa and with P. aeruginosa were 75 ppm and 250 ppm, respectively.

Take `Cl/C=C\C[N+]12CN3CN(CN(C3)C1)C2` [Ii]: the “Minimum Inhibitory Concentration” value with A. niger stood at 500 ppm; with S. aureus it was 250 ppm; in the test on P. chrysogenum (setting [1]), 100 ppm; with A. aerogenes, 250 ppm; in the test on C. pelliculosa (setting [1]), 250 ppm; in the test with S. cerevisiae, 500 ppm. The results for the “Minimum Inhibitory Concentration” value with S. typhosa and in the test with P. aeruginosa were 50 ppm and 250 ppm, respectively.

Turning to `Cl/C=C\C[N+]12CN3CN(CN(C3)C1)C2` [Ij], the “Minimum Inhibitory Concentration” value was found to be 500 ppm in the test with A. niger; 250 ppm in the test with S. aureus; 250 ppm with P. chrysogenum (setting [1]); 75 ppm with A. aerogenes; 500 ppm in the test on C. pelliculosa (setting [1]); 500 ppm in the test on S. cerevisiae. Besides, the “Minimum Inhibitory Concentration” value is 75 ppm with S. typhosa and 250 ppm with P. aeruginosa.
